{"source": "ChEMBL document CHEMBL1201862", "about": "“PubChem BioAssay data set” (2004)", "key": {"[1]": {"target": "Luciferin 4-monooxygenase (Photinus pyralis, UniProt P08659)", "sequence (P08659 whole entry)": "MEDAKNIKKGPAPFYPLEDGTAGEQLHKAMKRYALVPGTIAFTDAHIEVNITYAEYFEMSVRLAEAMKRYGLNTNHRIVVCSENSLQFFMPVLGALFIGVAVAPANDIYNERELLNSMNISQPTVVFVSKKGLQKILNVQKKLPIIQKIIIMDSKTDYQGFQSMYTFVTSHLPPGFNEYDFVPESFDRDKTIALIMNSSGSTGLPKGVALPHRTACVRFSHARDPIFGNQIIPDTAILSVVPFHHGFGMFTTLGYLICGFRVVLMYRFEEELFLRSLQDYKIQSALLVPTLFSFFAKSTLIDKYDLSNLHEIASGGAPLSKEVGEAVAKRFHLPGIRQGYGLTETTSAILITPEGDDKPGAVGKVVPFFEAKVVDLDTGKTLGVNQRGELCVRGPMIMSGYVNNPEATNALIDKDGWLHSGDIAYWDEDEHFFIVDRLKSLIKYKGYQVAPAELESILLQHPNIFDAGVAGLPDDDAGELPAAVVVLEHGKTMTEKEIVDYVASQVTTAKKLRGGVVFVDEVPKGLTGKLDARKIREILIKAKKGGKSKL", "test": "Counter Screen for Luciferase-based Assay Positives. [Related pubchem assays: 620, 618, 411 ]"}, "[2]": {"system": "HT-1080", "test": "HT1080 cell viability loss – fluorescence readout (AID 620)", "assay_type": "functional, cell-based", "details": "Homo sapiens"}, "[3]": {"target": "Inward rectifier potassium channel 2 (Mus musculus, UniProt P35561)", "sequence (P35561 whole entry)": "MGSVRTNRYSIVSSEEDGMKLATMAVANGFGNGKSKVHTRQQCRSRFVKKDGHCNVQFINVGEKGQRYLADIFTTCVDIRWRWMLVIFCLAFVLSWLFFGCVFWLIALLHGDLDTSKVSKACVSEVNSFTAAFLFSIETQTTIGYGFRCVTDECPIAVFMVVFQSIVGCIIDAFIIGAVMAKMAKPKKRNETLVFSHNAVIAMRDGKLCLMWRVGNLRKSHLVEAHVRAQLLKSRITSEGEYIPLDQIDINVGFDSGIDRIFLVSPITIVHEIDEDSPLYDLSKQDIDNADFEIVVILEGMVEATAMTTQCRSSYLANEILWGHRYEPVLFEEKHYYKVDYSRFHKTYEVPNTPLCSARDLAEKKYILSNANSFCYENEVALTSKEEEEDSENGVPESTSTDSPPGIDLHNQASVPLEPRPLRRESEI", "test": "Manual electrophysiological patch clamp assay for SAR compounds that inhibit/block inward-rectifying potassium ion channel Kir2.1. [Related pubchem assays: 1843 (Summary assay for Kir2.1 inhibitor assays.), 1672 (Primary HTS of 305616 compounds where 2592 were identified as active.)]", "assay_type": "functional"}, "[4]": {"test": "antiviral protection against BTV-induced cell death – arbovirus, BSR cells, confirmation (AID 1250);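 note: protection from viral cytopathic effect measured as cell viability by ATP luminescence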", "assay_type": "functional"}, "[5]": {"test": "cells"}, "[6]": {"test": "viability of uninfected HEp-2 cells – cell-based, HTS, cytotoxicity control for RSV inhibitor project, dose response (AID 2410)", "assay_type": "functional", "details": "human respiratory syncytial virus"}, "[7]": {"test": "A cytotoxicity screen of small molecule inhibitors of the PhoP region in Salmonella typhi identified in the primary screen. [Related pubchem assays: 1850, 1864, 1985 ]", "assay_type": "functional"}, "[8]": {"target": "T1, Short transient receptor potential channel 4 (Mus musculus, UniProt Q9QUQ5)", "T1 sequence (Q9QUQ5 whole entry)": "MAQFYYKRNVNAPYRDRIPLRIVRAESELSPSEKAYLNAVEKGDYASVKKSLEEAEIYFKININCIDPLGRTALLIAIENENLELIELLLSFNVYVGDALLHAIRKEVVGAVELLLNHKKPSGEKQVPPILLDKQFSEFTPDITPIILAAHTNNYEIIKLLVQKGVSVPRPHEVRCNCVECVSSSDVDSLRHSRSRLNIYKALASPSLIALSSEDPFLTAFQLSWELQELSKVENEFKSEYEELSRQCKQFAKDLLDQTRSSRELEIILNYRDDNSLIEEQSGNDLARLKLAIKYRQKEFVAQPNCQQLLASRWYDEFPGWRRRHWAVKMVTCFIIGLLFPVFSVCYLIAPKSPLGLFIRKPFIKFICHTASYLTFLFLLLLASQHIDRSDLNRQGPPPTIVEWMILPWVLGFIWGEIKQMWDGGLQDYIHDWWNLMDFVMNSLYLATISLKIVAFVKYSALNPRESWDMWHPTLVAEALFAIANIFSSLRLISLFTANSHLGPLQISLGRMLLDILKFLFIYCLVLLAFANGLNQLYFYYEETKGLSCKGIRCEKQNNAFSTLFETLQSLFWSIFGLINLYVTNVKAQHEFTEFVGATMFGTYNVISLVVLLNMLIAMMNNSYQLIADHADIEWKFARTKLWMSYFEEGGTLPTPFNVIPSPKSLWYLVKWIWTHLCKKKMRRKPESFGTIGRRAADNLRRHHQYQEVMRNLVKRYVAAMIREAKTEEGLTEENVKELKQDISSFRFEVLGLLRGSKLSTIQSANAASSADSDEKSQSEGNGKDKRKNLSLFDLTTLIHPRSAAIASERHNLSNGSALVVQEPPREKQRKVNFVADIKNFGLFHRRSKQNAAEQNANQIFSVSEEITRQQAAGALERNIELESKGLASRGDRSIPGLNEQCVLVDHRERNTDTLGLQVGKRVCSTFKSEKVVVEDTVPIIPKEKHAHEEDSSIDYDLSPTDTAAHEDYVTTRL", "test": "calcium entry via TRPC4 opening agents – cell-based, HEK293 TRPC4/mu-opioid, Fluo-4 calcium, dose response (AID 434937)", "assay_type": "functional"}, "[9]": {"target": "T2, Estrogen receptor (Homo sapiens, UniProt P03372)", "T2 sequence (P03372 whole entry)": "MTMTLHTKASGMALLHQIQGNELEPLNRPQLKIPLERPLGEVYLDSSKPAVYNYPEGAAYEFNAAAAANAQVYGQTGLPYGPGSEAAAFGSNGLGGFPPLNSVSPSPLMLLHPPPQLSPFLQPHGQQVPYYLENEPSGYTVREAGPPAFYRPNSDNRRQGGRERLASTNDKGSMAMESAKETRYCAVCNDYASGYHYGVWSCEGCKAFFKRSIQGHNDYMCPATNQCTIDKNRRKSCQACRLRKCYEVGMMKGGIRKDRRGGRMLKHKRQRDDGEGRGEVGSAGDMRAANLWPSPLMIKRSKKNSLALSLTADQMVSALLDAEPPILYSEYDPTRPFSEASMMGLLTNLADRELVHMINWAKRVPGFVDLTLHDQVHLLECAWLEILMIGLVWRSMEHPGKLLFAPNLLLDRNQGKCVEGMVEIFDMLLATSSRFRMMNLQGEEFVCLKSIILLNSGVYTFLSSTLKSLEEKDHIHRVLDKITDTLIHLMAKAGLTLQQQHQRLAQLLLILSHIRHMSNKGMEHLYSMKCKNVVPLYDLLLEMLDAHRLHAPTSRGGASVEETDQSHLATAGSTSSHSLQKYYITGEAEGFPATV", "test": "ERα coactivator recruitment enhancers – biochemical, TR-FRET, ERα LBD, dose response (AID 737)"}, "[10]": {"target": "T3, NADPH oxidase 1 (Homo sapiens, UniProt Q9Y5S8)", "T3 sequence (Q9Y5S8 whole entry)": "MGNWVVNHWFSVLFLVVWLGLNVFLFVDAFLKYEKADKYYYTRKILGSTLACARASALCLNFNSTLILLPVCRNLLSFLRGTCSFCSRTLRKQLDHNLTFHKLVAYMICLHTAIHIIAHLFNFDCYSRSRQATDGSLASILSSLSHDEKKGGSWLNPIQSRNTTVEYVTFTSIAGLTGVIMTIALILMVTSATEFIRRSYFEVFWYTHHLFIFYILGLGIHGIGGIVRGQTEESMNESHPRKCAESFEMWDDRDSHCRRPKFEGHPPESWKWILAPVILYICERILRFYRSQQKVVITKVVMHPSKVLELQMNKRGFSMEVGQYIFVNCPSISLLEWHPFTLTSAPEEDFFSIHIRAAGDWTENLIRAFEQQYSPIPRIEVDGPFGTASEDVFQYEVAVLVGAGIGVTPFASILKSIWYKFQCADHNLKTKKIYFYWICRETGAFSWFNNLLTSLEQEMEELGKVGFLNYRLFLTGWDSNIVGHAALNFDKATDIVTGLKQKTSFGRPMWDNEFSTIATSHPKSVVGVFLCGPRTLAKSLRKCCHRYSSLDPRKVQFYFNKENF", "assay_type": "functional, cell-based"}}, "note": "Active and inactive are the calls of the source.", "data": [{"smiles": "COCCn1c(C)cc(C2=NN=C(Nc3ccccc3)SC2)c1C", "values": [{"measurement": "EC50", "setting": "[1]", "value": "2.49 µM (active)"}, {"measurement": "EC50", "setting": "[2]", "value": "> 50 µM (not active)"}]}, {"smiles": "COc1ccc(CNCc2ccc(OC)cc2)cc1", "values": [{"measurement": "IC50", "setting": "[3]", "value": "1.88 µM (active)"}]}, {"smiles": "COc1ccc(-c2csc(Nc3ccc(C)cn3)n2)cc1OC", "values": [{"measurement": "IC50", "setting": "[4]", "value": "35.9 µM (active)"}]}, {"smiles": "CCOc1ccc(CNC(=O)c2cc3oc4ccccc4c3n2C)cc1", "values": [{"measurement": "IC50", "setting": "[5]", "value": "4.82 µM (active)"}, {"measurement": "CC50", "setting": "[6]", "value": "39 µM (active)"}]}, {"smiles": "CN(CCOc1ccc(Cl)cc1)CC(O)c1ccccc1", "note": "(stereo unspecified)", "values": [{"measurement": "EC50", "setting": "[7]", "value": "> 50 µM (active)"}, {"measurement": "EC50", "setting": "[8]", "value": "1.88 µM (active)"}]}, {"smiles": "Cc1cccc(N2CCN(C(=O)c3cc4c(=O)n(C)c5ccccc5c4n3C)CC2)c1C", "values": [{"measurement": "EC50", "setting": "[9]", "value": "12.8 µM (active)"}]}, {"smiles": "O=C1Nc2ccccc2/C1=N/NC(=S)Nc1ccccc1", "values": [{"measurement": "IC50", "setting": "[10]", "value": "> 17 µM (not active)"}]}, {"smiles": "COc1cc(NC(=O)c2cccs2)c(C(=O)OCC(=O)NC(=O)NCc2ccccc2)cc1OC", "values": [{"measurement": "EC50", "setting": "[9]", "value": "1.58 µM (active)"}]}]}
